Assay results as given in patent US7579471B2, “Tropane derivatives useful in therapy” (Pfizer, Inc., priority 2002, dated 2009).
Like-named read-outs stand apart in the source and are kept apart here.

Biological target: CCR5 receptors (Homo sapiens, UniProt P51681)
Assay: inhibition of binding of HIV envelope protein (gp120) to CCR5 receptors
Conditions: procedure of Example 1 of EP 1 118 858 A2
Description: Biol., 60, 147-52 (1996); by using the intracellular calcium mobilisation assays as described by the same authors; and by their ability to inhibit binding of HIV envelope protein (gp120) to CCR5 receptors according to the procedure described in Example 1 of EP 1 118 858 A2 (pp 85-88). Cell lines expressing the receptor of interest include those naturally expressing the receptor, such as PM-1, or IL-2 stimulated peripheral blood lymphocytes (PBL), or a cell engineered to express a recombinant receptor, such as CHO, 300.19, L1.2 or HEK-293.
The ability of the compounds of formula (I) to inhibit binding of HIV envelope protein (gp120) to CCR5 receptors was determined by the procedure described in Example 1 of EP 1 118 858 A2.

[1] = IC50, inhibition of binding of HIV envelope protein (gp120) to CCR5 receptors

Chain of CCR5 receptors (P51681 whole entry): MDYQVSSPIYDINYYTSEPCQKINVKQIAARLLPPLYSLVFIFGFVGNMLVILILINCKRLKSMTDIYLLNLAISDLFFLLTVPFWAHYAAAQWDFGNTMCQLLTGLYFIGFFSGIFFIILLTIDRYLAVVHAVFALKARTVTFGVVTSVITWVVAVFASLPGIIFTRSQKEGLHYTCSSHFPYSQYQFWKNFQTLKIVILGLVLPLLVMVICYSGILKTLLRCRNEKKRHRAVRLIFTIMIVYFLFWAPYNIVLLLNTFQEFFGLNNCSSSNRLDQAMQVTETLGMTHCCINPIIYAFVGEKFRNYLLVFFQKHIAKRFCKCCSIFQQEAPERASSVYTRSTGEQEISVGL

| SMILES | IC50 [1] | IC50 (read-out: IC50, inhibition of binding of HIV envelope protein (gp120) to CCR5 receptors) |
| --- | --- | --- |
| COC(=O)N[C@@H](CCN1C2CCC1CC(n1c(C)nc3c1CN(C(C)=O)CC3)C2)c1cccc(F)c1 (stereo partly drawn) [Example 17, Methyl (1S)-3-[3-endo-(5-acetyl-2-methyl-4,5,6,7-tetrahydro-3H-imidazo[4,5-c]pyridin-3-yl)-8-azabicyclo[3.2.1]oct-8-yl]-1-(3-fluorophenyl)propylcarbamate] | 15 nM | – |
| COC(=O)N[C@@H](CCN1C2CCC1CC(n1c(C)nc3c1CCN(C(=O)OC)C3)C2)c1ccccc1 (stereo partly drawn) [Example 30, Methyl 1-endo-(8-{(3S)-3-[(methoxycarbonyl)amino]-3-phenylpropyl}-8-azabicyclo[3.2.1]oct-3-yl)-2-methyl-4,5,6,7-tetrahydro-1H-imidazo[4,5-c]pyridine-5-carboxylate] | – | 7 nM |
| COC(=O)N1CCc2c(nc(C)n2C2CC3CCC(C2)N3CC[C@H](NC(C)=O)c2cccc(F)c2)C1 (stereo partly drawn) [Example 33, Methyl 1-endo-{8-[(3S)-3-(acetylamino)-3-(3-fluorophenyl)propyl]-8-azabicyclo[3.2.1]oct-3-yl}-2-methyl-4,5,6,7-tetrahydro-1H-imidazo[4,5-c]pyridine-5-carboxylate] | 23 nM | – |
| CC(=O)N[C@@H](CCN1C2CCC1CC(n1c(C)nc3c1CN(C(=O)C(C)C)CC3)C2)c1ccccc1 (stereo partly drawn) [Example 9, N-{(1S)-3-[3-endo-(5-Isobutyryl-2-methyl-4,5,6,7-tetrahydro-3H-imidazo[4,5-c]pyridin-3-yl)-8-azabicyclo[3.2.1]oct-8-yl]-1-phenylpropyl}acetamide] | 7 nM | – |
| COC(=O)N1CCc2c(nc(C)n2C2CC3CCC(C2)N3CC[C@H](NC(C)=O)c2cccc(F)c2)C1 (stereo partly drawn) [Example 44, Methyl 1-endo-{8-[(3S)-3-(acetamido)-3-(3-fluorophenyl)propyl]-8-azabicyclo[3.2.1]oct-3-yl}-2-methyl-4,5,6,7-tetrahydro-1H-imidazo[4,5-c]pyridine-5-carboxylate monohydrate] | 14 nM | – |
